Here are results for one compound from article PMC7484762 (2020).

Assay [1] relates to Δterm (ligated F. ulcerans ZTP aptamer with 3' tether, annealed to biotin-DNA-Cy5) (DNA:RNA, riboswitch) UAUCAGUUAUAUGACUGACGGAACGUGGAAUUAACCACAUGAAGUAUAACGAUGACAAUGCCGACCGUCUGGGCGUUCAUUAGCGGUAUUCCGGAAUUGCCGUAAUCGCG/CGCGATTACGGCAATTCCGGAATACCGCTAATG
In words: smFRET titration (TIRF), Langmuir fit. Conditions: 150 mM KCl, 10 mM MgCl2, 50 mM HEPES-KOH pH 7.4, thermally refolded, Pmax 71%, 1.5 μM after vectorial folding.

Assay [2] concerns 81-83A (ligated, with 3' tether, annealed to biotin-DNA-Cy5) (DNA:RNA, riboswitch) UAUCAGUUAUAUGACUGACGGAACGUGGAAUUAACCACAUGAAGUAUAACGAUGACAAUGCCGACCGUCUGGGCGAACAAAAAUAGAUUGUCGGUUCAUUAGCGGUAUUCCGGAAUUGCCGUAAUCGCG/CGCGATTACGGCAATTCCGGAATACCGCTAATG
The assay is described as follows: smFRET after vectorial folding (Rep-X). Conditions: 150 mM KCl, 10 mM MgCl2; 50 mM HEPES pH 7.4; larger bound fraction than WT.

Assay [3] deals with 79-nt RNA ending at A79 (RNA, riboswitch) UAUCAGUUAUAUGACUGACGGAACGUGGAAUUAACCACAUGAAGUAUAACGAUGACAAUGCCGACCGUCUGGGCGAACA
The assay is described as follows: ITC. Conditions: 150 mM KCl, 10 mM MgCl2; 50 mM HEPES-KOH pH 7.4, 37 °C; apparent; exact value in Supplementary Figure 1b.

Assay [4] relates to 81-83, 92-94A (ligated, with 3' tether, annealed to biotin-DNA-Cy5) (DNA:RNA, riboswitch) UAUCAGUUAUAUGACUGACGGAACGUGGAAUUAACCACAUGAAGUAUAACGAUGACAAUGCCGACCGUCUGGGCGAACAAAAAUAGAUUGUAAAUUCAUUAGCGGUAUUCCGGAAUUGCCGUAAUCGCG/CGCGATTACGGCAATTCCGGAATACCGCTAATG
In words: smFRET. Conditions: 150 mM KCl, 10 mM MgCl2; 50 mM HEPES-KOH pH 7.4; thermally refolded; majority binds.

Assay [5] has as its system 92-94A (ligated, with 3' tether, annealed to biotin-DNA-Cy5) (DNA:RNA, riboswitch) UAUCAGUUAUAUGACUGACGGAACGUGGAAUUAACCACAUGAAGUAUAACGAUGACAAUGCCGACCGUCUGGGCGAACAAGCCUAGAUUGUAAAUUCAUUAGCGGUAUUCCGGAAUUGCCGUAAUCGCG/CGCGATTACGGCAATTCCGGAATACCGCTAATG
In words: smFRET. Conditions: 150 mM KCl, 10 mM MgCl2; 50 mM HEPES-KOH pH 7.4; thermally refolded; partially responsive.

Assay [6] relates to WT (ligated F. ulcerans ZTP riboswitch with 3' tether, annealed to biotin-DNA-Cy5) (DNA:RNA, riboswitch) UAUCAGUUAUAUGACUGACGGAACGUGGAAUUAACCACAUGAAGUAUAACGAUGACAAUGCCGACCGUCUGGGCGAACAAGCCUAGAUUGUCGGUUCAUUAGCGGUAUUCCGGAAUUGCCGUAAUCGCG/CGCGATTACGGCAATTCCGGAATACCGCTAATG
The assay is described as follows: smFRET. Conditions: 150 mM KCl, 10 mM MgCl2; 50 mM HEPES-KOH pH 7.4; thermally refolded with 1 mM ZMP, ~10% bound; vectorially folded 38%.

Take `NC(=O)c1ncn([C@@H]2O[C@H](COP(=O)(O)O)[C@@H](O)[C@H]2O)c1N`: the “apparent KD” value in assay [1] stood at 1300 nM. Further, the binding result in assay [2] is on record as “yes”; in assay [4] it was “yes”; in assay [5] it was “weak”; in assay [6], “weak”. Besides, the Kd in assay [3] is on record as ~ 1 μM.

For orientation: apparent KD means the concentration giving half-maximal binding under the conditions of the assay.
